Activity calls are given as the source filed them. The calls are words filed in the database; no cut-off is given here.
What was measured:
[1] = Cytotoxicity against mouse RAW264.7 cells assessed as inhibition of cell viability incubated for 48 hrs by MTT assay; format: toxicity, cell-based
Mitochondrial membrane [2] = experiment: Induction of mitochondrial membrane hyperpolarization in trypomastigote form of Trypanosoma cruzi Y at IC50 incubated for 24 hrs by Rhodamine 123 staining based flow cytometric analysis; format: cell membranes
Trypanosoma cruzi [3] = experiment: Antiparasitic activity against trypomastigote form of Trypanosoma cruzi Y assessed as appearance of filamentous structures scattered across the membrane by Electron micrographic analysis; format: functional, organism-based
Trypanosoma cruzi [4] = experiment: (§1) Antiparasitic activity against trypomastigote form of Trypanosoma cruzi Tulahuen expressing Escherichia coli beta-galactosidase infected in mouse L929 cells assessed as reduction in parasitic growth using CPRG as substrate pretreated with compound for 96 hrs followed by substrate addition and measured after 16 to 20 hrs by Spectrophotometric analysis; format: functional, organism-based
RAW264.7 [5] = experiment: Immunomodulatory activity in mouse RAW264.7 cells assessed as decrease in TNF production at 1 to 4 times IC50 incubated for 24 to 144 hrs by flow cytometric analysis; format: functional, cell-based; settings: time 24-144 hrs
Trypanosoma cruzi [6] = experiment: Antitrypanosomal activity against trypomastigote form of Trypanosoma cruzi Y assessed as induction of apoptosis at 2 times IC50 by measuring necrotic cells incubated for 24 hrs by Annexin V-FITC/7-AAD staining based flow cytometric analysis relative to control; format: functional
Leishmania amazonensis [7] = experiment: (§2) Antiparasitic activity against Leishmania amazonensis amastigote expressing Escherichia coli beta-galactosidase infected in mouse RAW264.7 cells assessed as reduction in parasitic growth using CPRG as substrate preincubated with compound for 24 hrs followed by substrate addition and measured after 2 to 6 hrs by Spectrophotometric analysis; format: functional, organism-based
Trypanosoma cruzi [8] = experiment: Antitrypanosomal activity against trypomastigote form of Trypanosoma cruzi Y assessed as induction of apoptosis at 2 times IC50 by measuring early apoptosis incubated for 24 hrs by Annexin V-FITC/7-AAD staining based flow cytometric analysis relative to control; format: functional
[9] = Selectivity index, ratio of CC50 for mouse RAW264.7 cells to IC50 for antiparasitic activity against Leishmania infantum amastigote expressing Escherichia coli beta-galactosidase infected in mouse RAW264.7 cells; format: toxicity; settings: read-out: Selectivity Index
[10] = Acute toxicity in male Swiss-Webster mouse infected with Trypanosoma cruzi Y assessed as mortality at 5 to 200 mg/kg, po measured after 48 hrs; format: organism-based; settings: in vivo, dose 5-200 mg/kg
Leishmania infantum [11] = experiment: (§3) Antiparasitic activity against Leishmania infantum MHOM/MA/67/ITMAP-263 promastigote expressing Escherichia coli beta-galactosidase assessed as reduction in parasitic growth using CPRG as substrate preincubated with compound for 72 hrs followed by substrate addition and measured after 10 mins by Spectrophotometric analysis; format: functional, organism-based
Leishmania infantum [12] = experiment: as §2, with “infantum” for “amazonensis”; format: functional, organism-based; settings: Leishmania infantum, RAW264.7; read-out: IC50
[13] = Acute toxicity in male Swiss-Webster mouse infected with Trypanosoma cruzi Y assessed as side effects at 5 to 200 mg/kg, po measured after 48 hrs; format: organism-based; settings: in vivo, dose 5-200 mg/kg
[14] = Acute toxicity in female Swiss-Webster mouse infected with Trypanosoma cruzi Y assessed as mortality at 5 to 200 mg/kg, po measured after 48 hrs; format: organism-based; settings: in vivo, dose 5-200 mg/kg
RAW264.7 [15] = experiment: Immunomodulatory activity in mouse RAW264.7 cells assessed as increase in IL-6 production at 1 to 4 times IC50 incubated for 24 to 144 hrs by flow cytometric analysis; format: functional, cell-based; settings: time 24-144 hrs
Trypanosoma cruzi [16] = experiment: as §1, with “amastigote” for “trypomastigote”; format: functional, organism-based
[17] = Acute toxicity in female Swiss-Webster mouse infected with Trypanosoma cruzi Y assessed as side effects at 5 to 200 mg/kg, po measured after 48 hrs; format: organism-based; settings: in vivo, dose 5-200 mg/kg
RAW264.7 [18] = experiment: Immunomodulatory activity in mouse RAW264.7 cells assessed as nitric oxide formation at 1 to 4 times IC50 incubated for 72 hrs by Griess reagent based Spectrophotometric analysis; format: functional, cell-based
Trypanosoma cruzi [19] = experiment: Antitrypanosomal activity against trypomastigote form of Trypanosoma cruzi Y assessed as induction of apoptosis at 2 times IC50 by measuring late apoptotic cells incubated for 24 hrs by Annexin V-FITC/7-AAD staining based flow cytometric analysis relative to control; format: functional
Trypanosoma cruzi [20] = experiment: Antiparasitic activity against trypomastigote form of Trypanosoma cruzi Y assessed as appearance of ruptured cells with cytoplasmic content leakage by Electron micrographic analysis; format: functional, organism-based
[21] = Cytotoxicity against mouse L929 cells assessed as inhibition of cell viability incubated for 96 hrs by MTT assay; format: toxicity, cell-based
Trypanosoma cruzi [22] = experiment: Antiparasitic activity against Trypanosoma cruzi Y trypomastigotes infected in male Swiss mouse assessed as reduction in parasitemia at 100 mg/kg/day, po pre-infected with parasite followed by compound addition and measured at 1 to 5 days post-infection by microscopic analysis; format: functional, organism-based; settings: time 1-5 day
Trypanosoma cruzi [23] = experiment: Antitrypanosomal activity against trypomastigote form of Trypanosoma cruzi Y assessed as induction of apoptosis at 1 times IC50 by measuring early apoptosis incubated for 24 hrs by Annexin V-FITC/7-AAD staining based flow cytometric analysis relative to control; format: functional
Cell membrane = experiment: Induction of cell membrane damage in trypomastigote form of Trypanosoma cruzi Y assessed as decrease in red fluorescence intensity incubated for 24 hrs by acridine orange staining based flow cytometric analysis; format: subcellular
RAW264.7 [24] = experiment: Immunomodulatory activity in mouse RAW264.7 cells assessed as decrease in IL-10 production at 1 to 4 times IC50 incubated for 24 to 144 hrs by flow cytometric analysis; format: functional, cell-based; settings: time 24-144 hrs
Trypanosoma cruzi [25] = experiment: Antiparasitic activity against trypomastigote form of Trypanosoma cruzi Y assessed as appearance of swollen cells with cytoplasmic content leakage by Electron micrographic analysis; format: functional, organism-based
Trypanosoma cruzi [26] = experiment: Antiparasitic activity against trypomastigote form of Trypanosoma cruzi Y assessed as presence of bubbles by Electron micrographic analysis; format: functional, organism-based
Leishmania amazonensis [27] = experiment: as §3, with “amazonensis WHOM/00 LTB 0016” for “infantum MHOM/MA/67/ITMAP-263”; format: functional, organism-based
[28] = Selectivity index, ratio of CC50 for mouse L929 cells to IC50 for antiparasitic activity against trypomastigote and amastigote form of Trypanosoma cruzi Tulahuen expressing Escherichia coli beta-galactosidase infected in mouse L929 cells; format: toxicity; settings: read-out: Selectivity Index
[29] = Toxicity in male Swiss mouse infected with Trypanosoma cruzi Y trypomastigotes assessed as mortality at 100 mg/kg/day, po pre-infected with parasite followed by compound addition and measured after 5 to 9 days relative to control; format: organism-based; settings: in vivo, time 5-9 day; for Activity: po, 100 mg/kg
Trypanosoma cruzi [30] = experiment: Antiparasitic activity against trypomastigote form of Trypanosoma cruzi Y assessed as appearance of twisted bodies by Electron micrographic analysis; format: functional, organism-based
[31] = Selectivity index, ratio of CC50 for mouse RAW264.7 cells to IC50 for antiparasitic activity against Leishmania amazonensis amastigote expressing Escherichia coli beta-galactosidase infected in mouse RAW264.7 cells; format: toxicity; settings: read-out: Selectivity Index
[32] = Selectivity index, ratio of CC50 for mouse RAW264.7 cells to IC50 for antiparasitic activity against Leishmania amazonensis WHOM/00 LTB 0016 promastigote expressing Escherichia coli beta-galactosidase; format: toxicity; settings: read-out: Selectivity Index
[33] = Selectivity index, ratio of CC50 for mouse RAW264.7 cells to IC50 for antiparasitic activity against Leishmania infantum MHOM/MA/67/ITMAP-263 promastigote expressing Escherichia coli beta-galactosidase; format: toxicity; settings: read-out: Selectivity Index
Trypanosoma cruzi [34] = experiment: Antiparasitic activity against trypomastigote form of Trypanosoma cruzi Y assessed as appearance of membrane rupture by Electron micrographic analysis; format: functional, organism-based
Mitochondrial membrane [35] = experiment: Induction of mitochondrial membrane depolarization in trypomastigote form of Trypanosoma cruzi Y at IC50 incubated for 24 hrs by Rhodamine 123 staining based flow cytometric analysis; format: cell membranes
[36] = Leishmania amazonensis, RAW264.7, read-out: IC50
[37] = Leishmania infantum, MHOM/MA/67/ITMAP-263, read-out: IC50
[38] = Leishmania amazonensis, WHOM/00 LTB 0016, read-out: IC50

SMILES	CC50 at 48 h [1] [µM]	Activity (Trypanosoma cruzi [3])	IC50 (Trypanosoma cruzi [4]) [µM]	Activity (RAW264.7 [5])	selectivity ratio [9]	Activity [10]	IC50 (Leishmania infantum [12]) [µM]	Activity [13]	Activity [14]	Activity (RAW264.7 [15])	IC50 (Trypanosoma cruzi [16]) [µM]	Activity [17]	Activity (Trypanosoma cruzi [20])	CC50 at 96 h [21] [µM]	Activity (Trypanosoma cruzi [22])	Activity (Cell membrane)	Activity (RAW264.7 [24])	Activity (Trypanosoma cruzi [25])	Activity (Trypanosoma cruzi [26])	selectivity ratio [28]	also measured
C/C(=N\Nc1nc(-c2cccc([N+](=O)[O-])c2)cs1)c1cccnc1	35.3	Dose-dependent-effect	0.4	inactive	0.4	Non-toxic	93.8	Non-toxic	Non-toxic	Active	0.4	Non-toxic	Dose-dependent-effect	114	inactive	Dose-dependent-effect	Active	Dose-dependent-effect	Dose-dependent-effect	284	Activity (Mitochondrial membrane [2]): Active; Activity (Trypanosoma cruzi [6]): 2.31%; IC50 (Leishmania amazonensis [7]; raw264.7): Not_active; Activity (Trypanosoma cruzi [8]): 7.55%; IC50 (Leishmania infantum [11]): Not_active; Activity (RAW264.7 [18]): Active; Activity (Trypanosoma cruzi [19]): 9.39%; Activity (Trypanosoma cruzi [23]): 29.2%; IC50 (Leishmania amazonensis [27]): Not_active; Activity [29]: Toxic
C/C(=N\N=c1\scc(-c2ccccc2)n1C)c1cccnc1	5.5	Dose-dependent-effect	0.3	Active	0.7	Non-toxic	8.4	Non-toxic	Non-toxic	Active	0.3	Non-toxic	Dose-dependent-effect	3.5	inactive	Dose-dependent-effect	Active	Dose-dependent-effect	Dose-dependent-effect	11.7	Activity (Mitochondrial membrane [2]): Active; Activity (Trypanosoma cruzi [30]): Dose-dependent-effect; Activity (Trypanosoma cruzi [6]): 2.36%; IC50 (Leishmania amazonensis [7]; [36]): 9.4 µM; Activity (Trypanosoma cruzi [8]): 61.6%; selectivity ratio [31]: 0.6; IC50 (Leishmania infantum [11]; [37]): 5.2 µM; Activity (RAW264.7 [18]): Active; Activity (Trypanosoma cruzi [19]): 3.04%; selectivity ratio [32]: 0.8; Activity (Trypanosoma cruzi [23]): 29.4%; selectivity ratio [33]: 1.1; IC50 (Leishmania amazonensis [27]; [38]): 7.1 µM; Activity [29]: Toxic
O=C(Cn1ccnc1[N+](=O)[O-])NCc1ccccc1 [BENZNIDAZOLE]	–	–	4.2	–	–	–	–	–	–	Active	4.2	–	–	2070	Active	–	Active	–	–	494	Activity (Trypanosoma cruzi [30]): Active; Activity (Trypanosoma cruzi [34]): Active; mortality ([29]; male, Swiss, read-out: Activity): 100%
COc1ccc(-c2cs/c(=N/N=C(\C)c3cccnc3)[nH]2)cc1	16.6	Dose-dependent-effect	0.3	inactive	0.2	Non-toxic	92.6	Non-toxic	Non-toxic	Active	0.3	Non-toxic	Dose-dependent-effect	19.4	inactive	Dose-dependent-effect	Active	Dose-dependent-effect	Dose-dependent-effect	64.7	Activity (Trypanosoma cruzi [30]): Dose-dependent-effect; IC50 (Leishmania amazonensis [7]; [36]): 7.7 µM; Activity (Mitochondrial membrane [35]): Active; selectivity ratio [31]: 2.2; IC50 (Leishmania infantum [11]; [37]): 174 µM; selectivity ratio [33]: 0.1; IC50 (Leishmania amazonensis [27]): Not_active; Activity [29]: Toxic
C/C(=N\Nc1nc(-c2ccccc2)cs1)c1cccnc1	18.3	Dose-dependent-effect	0.4	Active	0.2	Non-toxic	103	Non-toxic	Non-toxic	Active	0.4	Non-toxic	Dose-dependent-effect	212	inactive	Dose-dependent-effect	Active	Dose-dependent-effect	Dose-dependent-effect	531	Activity (Trypanosoma cruzi [30]): Dose-dependent-effect; IC50 (Leishmania amazonensis [7]; [36]): 9.9 µM; Activity (Mitochondrial membrane [35]): Active; selectivity ratio [31]: 1.9; IC50 (Leishmania infantum [11]; [37]): 5.4 µM; selectivity ratio [32]: 0.1; selectivity ratio [33]: 3.4; IC50 (Leishmania amazonensis [27]; [38]): 128 µM; Activity [29]: Toxic
